Experimental findings from patent US20250222145A1, “TRACER COMPOSITION FOR RADIOACTIVE PET DIAGNOSIS, INTERMEDIATE THEREOF, AND PRODUCTION METHOD THEREOF” (OSAKA UNIVERSITY, priority 2021, published 2025) are described below.

Data set [1] relates to brain tumor (C6 glioma). Description: PET imaging of tumor accumulation in C6 glioma model mouse. Type of data set: in vivo. Here is the method: (§1) ^18F-FAMT-OMe synthesized in the Example 1 was administered to a model mouse of brain tumor (C6 glioma), and accumulation properties thereof were observed Specifically, a solution containing about 10 MBq of ^18F-FAMT-OMe was intravenously injected into the mouse, and PET images were acquired at regular intervals.

The nature of data set [2]: changes over time in accumulation in the kidney (SUV, PET). Type of data set: in vivo, mouse. The settings on record: FIG. 3, SUV based on the radiation dose of blood. Here is the method:
as §1
In addition, FIG. 3 (left drawing) illustrates a result of measuring changes over time in the accumulation of the ^18F-FAMT-OMe in the kidney on the basis of a standardized uptake value (SUV) value based on the radiation dose of blood. As a comparative example, a result of a case using the ^18F-FAMT is illustrated in FIG. 3 (right drawing). In addition, FIG. 4 is a graph comparing the maximum value of SUV (SUVmax) with the existing tracer compounds ^18F-FBPA and ^18F-FAMT.

For data set [3], the system named is brain tumor (C6 glioma). As to the kind of experiment: distribution (% ID/g) in the mouse body. Type of data set: in vivo. To be noted: FIG. 5; except kidney and pancreas. The text has this: Further, FIG. 5 is a graph representing a distribution (% ID/g) of the ^18F-FAMT-OMe of the present invention in the mouse body.
A short description of data set [4]: radiochemical purity over time after production. Type of data set: physicochemical. The settings on record: after 5 hours of production, FIG. 1. The text has this:
A result of measuring radiochemical purity of the obtained compound 3 is illustrated in FIG. 1.

As to `COc1ccc(CC(C)(N)C(=O)O)cc1[18F]` (stereo not drawn) [Compound 3], the “accumulation at a tumor site (PET images)” value in data set [1] (about 10 MBq intravenously, model mouse of brain tumor (C6 glioma), FIG. 2) was “clear and high accumulation at a tumor site”. For the same compound, in data set [1] (in comparison with conventional ^18F-FAMT, FIG. 2), the “washing out from tumor site” value is “washing out was significantly gentle”. In data set [1] (one hour after administration, versus conventional ^18F-FAMT), the “accumulation one hour after administration” value was “better than that of the conventional ^18F-FAMT”. In addition, the “accumulation in the kidney over time (SUV)” value in data set [2] was “excreted from the kidney over time”. Also, the “distribution (% ID/g): tumor versus normal organs and blood” value in data set [3] is given as “significantly higher accumulation at a tumor site”. Also, the “stability of radiochemical purity” value in data set [4] is “purity was maintained even after 5 hours”.
